Test results published in ChEMBL document CHEMBL1156113, “Synthesis of new sugar derivatives and evaluation of their antibacterial activities against Mycobacterium tuberculosis” (Bioorg Med Chem Lett, 2009).
In brackets after ≈: the same amount, converted by molar mass.

Key:
[1] = system: Mycolicibacterium smegmatis; assay: Antibacterial activity against Mycobacterium smegmatis by broth dilution method; assay type: functional
[2] = system: Mycobacterium tuberculosis; assay: Antituberculosis activity against Mycobacterium tuberculosis H37Rv by broth dilution method; assay type: functional
[3] = microbe, parasite or virus in culture; assay type: functional, Mycobacterium bovis BCG str. Tokyo 172; conditions: Mycobacterium tuberculosis variant bovis BCG
Description: (§1) Antibacterial activity against Mycobacterium bovis BCG str. Tokyo 172 by broth dilution method

Mycobacterium avium [4] = assay: Antibacterial activity against Mycobacterium avium 724S by broth dilution method; assay type: functional
Mycobacterium avium [5] = assay: Antibacterial activity against Mycobacterium avium SmO by broth dilution method; assay type: functional
Staphylococcus aureus [6] = assay: Antibacterial activity against Staphylococcus aureus by broth dilution method; assay type: functional
Escherichia coli [7] = assay: Antibacterial activity against Escherichia coli by broth dilution method; assay type: functional
Escherichia coli [8] = system: Escherichia coli
Staphylococcus aureus [9] = system: Staphylococcus aureus
[10] = system: Mycobacterium tuberculosis; conditions: H37Rv
Mycobacterium avium [11] = conditions: 724S
Mycobacterium avium [12] = conditions: SmO
[13] = system: Mycolicibacterium smegmatis
[14] = system: Mycobacterium bovis BCG str. Tokyo 172
Description: as §1

[15] = Selectivity for Mycobacterium tuberculosis H37Rv over human THP1 cells; set-up: species or system THP-1; reference not given here
[16] = Selectivity for Mycobacterium tuberculosis H37Rv over human MRC5 cells; set-up: reference not given here
[17] = Selectivity for Mycobacterium tuberculosis H37Rv over human A549 cells; set-up: reference not given here
[18] = system: Mycobacterium tuberculosis; assay: Antimycobacterial activity against drug-susceptive Mycobacterium tuberculosis isolate A-3-20 by agar proportion method; assay type: functional
[19] = system: Mycobacterium tuberculosis; assay: Antimycobacterial activity against drug-susceptive Mycobacterium tuberculosis isolate A-3-1 by agar proportion method; assay type: functional
[20] = system: Mycobacterium tuberculosis; assay: Antimycobacterial activity against drug-susceptive Mycobacterium tuberculosis isolate A-1-3 by agar proportion method; assay type: functional
[21] = system: Mycobacterium tuberculosis; assay: Antimycobacterial activity against drug-susceptive Mycobacterium tuberculosis isolate A-3-21 by agar proportion method; assay type: functional
[22] = system: Mycobacterium tuberculosis; assay: Antimycobacterial activity against drug-susceptive Mycobacterium tuberculosis isolate A-3-16 by agar proportion method; assay type: functional
[23] = system: Mycobacterium tuberculosis; assay: Antimycobacterial activity against drug-susceptive Mycobacterium tuberculosis isolate A-3-5 by agar proportion method; assay type: functional
[24] = system: Mycobacterium tuberculosis; assay: Antimycobacterial activity against drug-susceptive Mycobacterium tuberculosis isolate A-3-6 by agar proportion method; assay type: functional
[25] = system: Mycobacterium tuberculosis; assay: Antimycobacterial activity against drug-susceptive Mycobacterium tuberculosis isolate A-2-5 by agar proportion method; assay type: functional
[26] = system: Mycobacterium tuberculosis; assay: Antimycobacterial activity against drug-susceptive Mycobacterium tuberculosis isolate A-3-22 by agar proportion method; assay type: functional
[27] = system: Mycobacterium tuberculosis; assay: Antimycobacterial activity against drug-susceptive Mycobacterium tuberculosis isolate A-3-15 by agar proportion method; assay type: functional
[28] = system: Mycobacterium tuberculosis; assay: Antimycobacterial activity against drug-susceptive Mycobacterium tuberculosis isolate A-3-2 by agar proportion method; assay type: functional
[29] = system: Mycobacterium tuberculosis; assay: Antimycobacterial activity against drug-susceptive Mycobacterium tuberculosis isolate A-3-17 by agar proportion method; assay type: functional
[30] = system: Mycobacterium tuberculosis; assay: Antimycobacterial activity against drug-susceptive Mycobacterium tuberculosis isolate A-3-11 by agar proportion method; assay type: functional
[31] = system: Mycobacterium tuberculosis; assay: Antimycobacterial activity against drug-susceptive Mycobacterium tuberculosis isolate A-1-1 by agar proportion method; assay type: functional
[32] = system: Mycobacterium tuberculosis; assay: Antimycobacterial activity against drug-susceptive Mycobacterium tuberculosis isolate A-3-9 by agar proportion method; assay type: functional
[33] = system: Mycobacterium tuberculosis; assay: Antimycobacterial activity against drug-susceptive Mycobacterium tuberculosis isolate A-3-19 by agar proportion method; assay type: functional
[34] = system: Mycobacterium tuberculosis; assay: Antimycobacterial activity against drug-susceptive Mycobacterium tuberculosis isolate A-1-2 by agar proportion method; assay type: functional
[35] = system: Mycobacterium tuberculosis; assay: Antimycobacterial activity against drug-susceptive Mycobacterium tuberculosis isolate A-3-12 by agar proportion method; assay type: functional
[36] = system: Mycobacterium tuberculosis; assay: Antimycobacterial activity against drug-susceptive Mycobacterium tuberculosis isolate A-3-13 by agar proportion method; assay type: functional

Molecule	MIC [1]	MIC [2]	MIC [3]	MIC (Mycobacterium avium [4])	MIC (Mycobacterium avium [5])	MIC (Staphylococcus aureus [6])	MIC (Escherichia coli [7])	Ratio [15]	Ratio [16]	Ratio [17]	also measured
CNC.Cl [DIMETHYLAMINE HCL]	> 100 µg/mL	> 100 µg/mL	> 100 µg/mL	–	–	–	–	–	–	–	–
NCC[C@H](O)C(=O)N[C@@H]1C[C@H](N)[C@@H](O[C@H]2O[C@H](CN)[C@@H](O)[C@H](O)[C@H]2O)[C@H](O)[C@H]1O[C@H]1O[C@H](CO)[C@@H](O)[C@H](N)[C@H]1O [AMIKACIN]	1.25 µg/mL (≈ 2.13 µM)	1.75 µg/mL (≈ 2.99 µM)	0.78 µg/mL (≈ 1.33 µM)	> 100 µg/mL	1.56 µg/mL (≈ 2.66 µM)	100 µg/mL (≈ 171 µM)	50 µg/mL (≈ 85.4 µM)	–	–	–	–
GENTAMICIN	–	–	–	–	–	–	–	–	–	–	MIC (Escherichia coli [8]): 6.25 µg/mL; MIC (Staphylococcus aureus [9]): 25 µg/mL; MIC [10]: 3.13 µg/mL; MIC (Mycobacterium avium [11]): 25 µg/mL; MIC (Mycobacterium avium [12]): 1.56 µg/mL; MIC [13]: 1.56 µg/mL; MIC [14]: 1.56 µg/mL
CC(=O)N[C@H]1[C@@H](O)[C@H](O)[C@@H](CO)O[C@@H]1SC(=S)N(C)C	> 100 µg/mL	> 100 µg/mL	> 100 µg/mL	> 100 µg/mL	> 100 µg/mL	> 100 µg/mL	> 100 µg/mL	–	–	–	–
CC(=O)N[C@@H]1[C@@H](O)[C@@H](O)[C@@H](CO)O[C@H]1SC(=S)N(C)C	> 100 µg/mL	12.5 µg/mL (≈ 38.5 µM)	25 µg/mL (≈ 77.1 µM)	> 100 µg/mL	> 100 µg/mL	> 100 µg/mL	> 100 µg/mL	–	–	–	–
NNC(=O)c1ccncc1 [ISONIAZID]	6.25 µg/mL (≈ 45.6 µM)	0.04 µg/mL (≈ 0.292 µM)	0.04 µg/mL (≈ 0.292 µM)	50 µg/mL (≈ 365 µM)	3.13 µg/mL (≈ 22.8 µM)	> 100 µg/mL	> 100 µg/mL	53613	7325	77277	–
CN[C@@H]1[C@H](O[C@H]2[C@H](O[C@H]3[C@H](O)[C@@H](O)[C@H](N=C(N)N)[C@@H](O)[C@@H]3N=C(N)N)O[C@@H](C)[C@]2(O)C=O)O[C@@H](CO)[C@H](O)[C@H]1O [STREPTOMYCIN]	0.39 µg/mL (≈ 0.671 µM)	0.39 µg/mL (≈ 0.671 µM)	0.2 µg/mL (≈ 0.344 µM)	0.39 µg/mL (≈ 0.671 µM)	0.39 µg/mL (≈ 0.671 µM)	50 µg/mL (≈ 86 µM)	50 µg/mL (≈ 86 µM)	18367	4282	32154	–
CO[C@H]1/C=C/O[C@@]2(C)Oc3c(C)c(O)c4c(O)c(c(/C=N/N5CCN(C)CC5)c(O)c4c3C2=O)NC(=O)/C(C)=C\C=C\[C@H](C)[C@H](O)[C@@H](C)[C@@H](O)[C@@H](C)[C@H](OC(C)=O)[C@@H]1C [RIFAMPIN]	1.56 µg/mL (≈ 1.9 µM)	0.004 µg/mL (≈ 0.00486 µM)	0.004 µg/mL (≈ 0.00486 µM)	< 0.05 µg/mL	0.004 µg/mL (≈ 0.00486 µM)	0.002 µg/mL (≈ 0.00243 µM)	50 µg/mL (≈ 60.8 µM)	16256	16250	44510	–
CC(=O)N[C@@H]1[C@@H](OC(C)=O)[C@H](OC(C)=O)[C@@H](COC(C)=O)O[C@H]1SC(=S)N(C)C	> 100 µg/mL	> 100 µg/mL	> 100 µg/mL	> 100 µg/mL	> 100 µg/mL	> 100 µg/mL	> 100 µg/mL	–	–	–	–
CC[C@@H](CO)NCCN[C@@H](CC)CO [ETHAMBUTOL]	12.5 µg/mL (≈ 61.2 µM)	2.5 µg/mL (≈ 12.2 µM)	1.5 µg/mL (≈ 7.34 µM)	3.13 µg/mL (≈ 15.3 µM)	1.56 µg/mL (≈ 7.64 µM)	> 100 µg/mL	> 100 µg/mL	916	111	1434	–
CC(=O)N[C@H]1[C@H](OC(C)=O)O[C@H](COC(C)=O)[C@@H](OC(C)=O)[C@@H]1OC(C)=O	> 100 µg/mL	> 100 µg/mL	> 100 µg/mL	–	–	–	–	–	–	–	–
CC(=O)N[C@@H]1[C@@H](O)[C@H](O)[C@@H](CSC(=S)N(C)C)O[C@H]1SC(=S)N(C)C	> 100 µg/mL	25 µg/mL (≈ 58.5 µM)	> 100 µg/mL	> 100 µg/mL	> 100 µg/mL	> 100 µg/mL	> 100 µg/mL	–	–	–	–
CN(C)C(=S)[S-].[Na+] [SODIUM DIMETHYLCARBAMODITHIOATE]	> 100 µg/mL	0.78 µg/mL	0.78 µg/mL	–	–	> 100 µg/mL	> 100 µg/mL	88	14	318	–
NC[C@H]1O[C@H](O[C@H]2[C@H](O)[C@@H](O[C@H]3O[C@H](CO)[C@@H](O)[C@H](N)[C@H]3O)[C@H](N)C[C@@H]2N)[C@H](O)[C@@H](O)[C@@H]1O [KANAMYCIN]	3.13 µg/mL (≈ 6.46 µM)	1.56 µg/mL (≈ 3.22 µM)	0.3 µg/mL (≈ 0.619 µM)	> 100 µg/mL	1.56 µg/mL (≈ 3.22 µM)	12.5 µg/mL (≈ 25.8 µM)	12.5 µg/mL (≈ 25.8 µM)	–	–	–	–
CC(=O)N[C@@H]1[C@@H](O)[C@H](O)[C@@H](CO)O[C@H]1SC(=S)N(C)C	> 100 µg/mL	25 µg/mL (≈ 77.1 µM)	31.3 µg/mL (≈ 96.5 µM)	> 100 µg/mL	> 100 µg/mL	> 100 µg/mL	> 100 µg/mL	242	28	188	MIC [18]: 6.25 µg/mL (≈ 19.3 µM); MIC [19]: 6.25 µg/mL (≈ 19.3 µM); MIC [20]: 6.25 µg/mL (≈ 19.3 µM); MIC [21]: 6.25 µg/mL (≈ 19.3 µM); MIC [22]: 6.25 µg/mL (≈ 19.3 µM); MIC [23]: 6.25 µg/mL (≈ 19.3 µM); MIC [24]: 6.25 µg/mL (≈ 19.3 µM); MIC [25]: 6.25 µg/mL (≈ 19.3 µM); MIC [26]: 6.25 µg/mL (≈ 19.3 µM); MIC [27]: 6.25 µg/mL (≈ 19.3 µM); MIC [28]: 6.25 µg/mL (≈ 19.3 µM); MIC [29]: 12.5 µg/mL (≈ 38.5 µM); MIC [30]: 6.25 µg/mL (≈ 19.3 µM); MIC [31]: 6.25 µg/mL (≈ 19.3 µM); MIC [32]: 6.25 µg/mL (≈ 19.3 µM); MIC [33]: 6.25 µg/mL (≈ 19.3 µM); MIC [34]: 6.25 µg/mL (≈ 19.3 µM); MIC [35]: 6.25 µg/mL (≈ 19.3 µM); MIC [36]: 6.25 µg/mL (≈ 19.3 µM)
CNC [DIMETHYLAMINE]	> 100 µg/mL	> 100 µg/mL	> 100 µg/mL	–	–	–	–	–	–	–	–
Nc1ccc(C(=O)O)c(O)c1 [AMINOSALICYLIC ACID]	1000 µg/mL (≈ 6530 µM)	0.16 µg/mL (≈ 1.04 µM)	50 µg/mL (≈ 327 µM)	100 µg/mL (≈ 653 µM)	100 µg/mL (≈ 653 µM)	> 100 µg/mL	> 100 µg/mL	–	–	–	–
